Reference: publication PMC9490236, “Accurate de novo design of membrane-traversing macrocycles” (Cell, 2022)
Read-outs that look alike come from different tables or passages of the source. Where a SMILES comes first, the peptide text is derived from it. [ ]: non-standard residue; d: D form. NMeF = CN[C@@H](Cc1ccccc1)C(=O)O; NMeL = CN[C@@H](CC(C)C)C(=O)O; dNMeL = CN[C@H](CC(C)C)C(=O)O; NMeV = CN[C@H](C(=O)O)C(C)C; Aib = CC(C)(N)C(=O)O

Experiments:
[1] = Caco-2 permeability assay (apical to basolateral); assay type: in vitro ADME, human; design: Caco_R1 / Caco_R3: unit not given here
Experimental: (§1) Human colon adenocarcinoma-derived Caco-2 cell line was used as a model system to investigate the intestinal epithelial permeability of our designs. Caco-2 cells were propagated in T125 flasks (Corning, Merck) using Dulbecco’s modified Eagle medium supplemented with 10% (v/v) fetal bovine serum, 1% (v/v) nonessential amino acids, and 1% (v/v) penicillin-streptomycin (Gibco, Thermo Fisher Scientific) at 37°C in an atmosphere of 5% CO2. Cells were subcultured when they reached 80% confluence.
(§2) The permeability of designed peptides was evaluated using an accelerated 6-day Caco-2 permeability assay as described previously ([Sevin et al., 2013]). In brief, cells were seeded into the 12-well Transwell plates with 0.4 μm polyester membrane inserts (Corning, Merck) to give 4.0 × 10^5 cells/well. The complete assay medium contained Dulbecco’s modified Eagle medium supplemented with 10% (v/v) fetal bovine serum, 1% (v/v) nonessential amino acids, and 0.4 μg/mL puromycin. The medium in plates was renewed every second day. The inserts received 0.75 mL of assay medium in the upper compartment (apical chamber) and 1.5 mL in the bottom compartment (basolateral chamber) individually. After 6-day incubation or until the cells formed monolayers, the medium in the apical and basolateral chamber was replaced with peptide solutions at 50 μM or Hanks' Balanced Salt Solution (HBSS), separately. The plates were incubated for 90 min at 37°C on an orbital shaker (60 rpm). The peptide concentration of solutions in the apical and basolateral compartments was subsequently quantified using LC-MS (Qstar Elite, AB Sciex Australia) to evaluate the transmembrane flux of peptides in the apical-to-basolateral direction. Membrane integrity of the Caco-2 cell monolayer was validated using trans-epithelial electrical resistance (TEER) measurements before and after the assays. Atenolol and quinidine were included as negative and positive controls in all assays.

[2] = system: Caco-2 cells; experiment: Caco-2 permeability assay (apical to basolateral); assay type: in vitro ADME, human; design: Caco_R1 / Caco_R3: unit not given here
Experimental: as §1, §2

[3] = PAMPA
[4] = in vitro; settings: PAMPA, PAMPA_Papp_Avg
[5] = Caco-2, average of 3 replicates, read-out: Caco_Papp_Average

Compound	Papp A→B [1, 5] [×10⁻⁶ cm/s]	Caco_R1 ([2]; Caco-2 Papp, replicate 1)	Caco_R3 ([2]; Caco-2 Papp, replicate 3)	Papp A→B ([1]; Caco-2, Caco_Papp_Average) [×10⁻⁶ cm/s]	Caco_R1 ([2]; Caco-2)	Caco_R3 ([2]; Caco-2)	PAMPA_R1 [3]	PAMPA_R3 [3]	Papp [4] [×10⁻⁶ cm/s]	PAMPA_Papp_Avg [3]	Caco_Papp_Average ([2]; Caco-2)	Papp ([1]; Caco-2) [×10⁻⁶ cm/s]
CC[C@@H](C)[C@H]1NC(=O)[C@H](CC(C)C)NC(=O)[C@@H](CC(C)C)NC(=O)[C@H](C(C)C)NC(=O)[C@@H](Cc2ccccc2)N(C)C(=O)[C@@H]2CCCN2C(=O)[C@@H](CC(C)C)NC(=O)[C@H](CC(C)C)NC(=O)[C@H]2CCCN2C1=O (single isomer, unassigned) [Design D9.4.p1, LEU DILE DPRO LEU DLEU PRO *DPHE VAL DLEU]	3.76	3.39	6	–	–	–	–	–	–	–	–	–
CC[C@@H](C)[C@H]1NC(=O)[C@H](CC(C)C)NC(=O)[C@@H](CC(C)C)NC(=O)[C@H](C(C)C)NC(=O)[C@@H](Cc2ccccc2)N(C)C(=O)[C@@H]2CCCN2C(=O)[C@@H](CC(C)C)NC(=O)[C@H](CC(C)C)NC(=O)[C@H]2CCCN2C1=O (single isomer, unassigned) [Design D9.4.p2, LEU DILE DPRO LEU DLEU PRO *DPHE VAL DLEU]	–	3.27	2.03	–	–	–	–	–	–	–	–	–
CC[C@H](C)[C@@H]1NC(=O)[C@H](Cc2ccccc2)N(C)C(=O)[C@H](CC(C)C)N(C)C(=O)[C@@H](C(C)C)NC(=O)[C@@H](C)NC(=O)[C@@H]2CCCN2C(=O)[C@@H](CC(C)C)NC(=O)[C@@H]2CCCN2C(=O)[C@H](C)NC1=O (single isomer, unassigned) [Design D9.6.p1]	4.51	4.759	4.47	–	–	–	–	–	–	–	–	–
CC[C@H](C)[C@@H]1NC(=O)[C@H](Cc2ccccc2)N(C)C(=O)[C@H](CC(C)C)N(C)C(=O)[C@@H](C(C)C)NC(=O)[C@@H](C)NC(=O)[C@@H]2CCCN2C(=O)[C@@H](CC(C)C)NC(=O)[C@@H]2CCCN2C(=O)[C@H](C)NC1=O (single isomer, unassigned) [Design D9.6.p2]	–	3.08	7.44	–	–	–	–	–	–	–	–	–
CC[C@H](C)[C@@H]1NC(=O)[C@@H](CC(C)C)NC(=O)[C@H](CC(C)C)N(C)C(=O)[C@H](Cc2ccccc2)NC(=O)CN(C)C(=O)[C@@H]2CCCN2C(=O)[C@H](C(C)C)NC(=O)[C@H](Cc2ccccc2)N(C)C(=O)[C@H]2CCCN2C(=O)[C@H](CC(C)C)NC1=O (single isomer, unassigned) [Design D10.1.p1, DLEU ILE LEU DPRO *PHE VAL PRO *GLY PHE *LEU]	–	–	–	8.65	8.51	8.51	4.75E-06	3.42E-06	3.92	–	–	–
CC[C@H](C)[C@@H]1NC(=O)[C@@H](CC(C)C)NC(=O)[C@H](CC(C)C)N(C)C(=O)[C@H](Cc2ccccc2)NC(=O)CN(C)C(=O)[C@@H]2CCCN2C(=O)[C@H](C(C)C)NC(=O)[C@H](Cc2ccccc2)N(C)C(=O)[C@H]2CCCN2C(=O)[C@H](CC(C)C)NC1=O (single isomer, unassigned) [Design D10.1.p2, DLEU ILE LEU DPRO *PHE VAL PRO *GLY PHE *LEU]	3.6	2.58	4.01	–	–	–	–	–	–	–	–	–
CC(C)C[C@@H]1NC(=O)[C@@H]2CCCN2C(=O)[C@@H](Cc2ccccc2)NC(=O)[C@H](C)N(C)C(=O)[C@H](CC(C)C)NC(=O)[C@H](CC(C)C)N(C)C(=O)[C@@H](C)NC(=O)[C@@H](CC(C)C)NC(=O)[C@@H]2CCCN2C(=O)[C@@H](Cc2ccccc2)NC1=O (single isomer, unassigned) [Design D10.2.p1, LEU DPHE PRO DLEU DALA *LEU LEU *ALA DPHE PRO]	–	–	–	9.76	8.83	11.73	4.51E-06	3.88E-06	–	3.92E-06	–	–
CC(C)C[C@@H]1NC(=O)[C@@H]2CCCN2C(=O)[C@@H](Cc2ccccc2)NC(=O)[C@H](C)N(C)C(=O)[C@H](CC(C)C)NC(=O)[C@H](CC(C)C)N(C)C(=O)[C@@H](C)NC(=O)[C@@H](CC(C)C)NC(=O)[C@@H]2CCCN2C(=O)[C@@H](Cc2ccccc2)NC1=O (single isomer, unassigned) [Design D10.2.p2, LEU DPHE PRO DLEU DALA *LEU LEU *ALA DPHE PRO]	–	–	–	–	0	0	4.31E-07	4.68E-07	–	3.60E-07	0	–
CC[C@H](C)[C@@H]1NC(=O)[C@@H](C(C)C)NC(=O)[C@@H]2CCCN2C(=O)[C@@H](CC(C)C)N(C)C(=O)[C@@H](C(C)C)NC(=O)[C@H](CC(C)C)N(C)C(=O)[C@H]2CCCN2C(=O)[C@@H](C)NC(=O)[C@H](Cc2ccccc2)N(C)C(=O)[C@H]2CCCN2C1=O (single isomer, unassigned) [Design D10.3.p1, ILE DPRO *PHE DALA DPRO *LEU DVAL *DLEU PRO DVAL]	–	–	–	3.15	1.3	6.15	3.04E-06	1.85E-06	2.52	–	–	–
CC[C@H](C)[C@@H]1NC(=O)[C@@H](C(C)C)NC(=O)[C@@H]2CCCN2C(=O)[C@@H](CC(C)C)N(C)C(=O)[C@@H](C(C)C)NC(=O)[C@H](CC(C)C)N(C)C(=O)[C@H]2CCCN2C(=O)[C@@H](C)NC(=O)[C@H](Cc2ccccc2)N(C)C(=O)[C@H]2CCCN2C1=O (single isomer, unassigned) [Design D10.3.p2, ILE DPRO *PHE DALA DPRO *LEU DVAL *DLEU PRO DVAL]	4.43	4.05	2.63	–	–	–	–	–	–	–	–	–
CC(C)C[C@@H]1C(=O)N(C)[C@@H](CC(C)C)C(=O)N2CCC[C@@H]2C(=O)N[C@H](CC(C)C)C(=O)N[C@H](C)C(=O)N2CCC[C@@H]2C(=O)N2CCC[C@H]2C(=O)N[C@@H](C)C(=O)N[C@H](Cc2ccccc2)C(=O)N[C@H](CC(C)C)C(=O)N[C@@H](C(C)C)C(=O)N1C (single isomer, unassigned) [Design D11.9.p2, VAL *DLEU *LEU DPRO DLEU DALA DPRO PRO ALA DPHE DLEU]	–	–	–	4.03	2.62	4.02	BQL	BQL	–	BQL	–	–
CC(C)C[C@@H]1NC(=O)[C@@H](CC(C)C)NC(=O)[C@H]2CCCN2C(=O)[C@H](CC(C)C)NC(=O)[C@@H](CC(C)C)NC(=O)[C@H](CC(C)C)NC(=O)[C@@H]2CCCN2C(=O)[C@@H](C)NC1=O [Design D8.1, DLEU LEU DPRO DLEU LEU DALA PRO LEU] (cyclo(L[dA]PL[dL]L[dP][dL]))	–	–	–	23.3	27.58	23.71	7.08E-06	6.42E-06	6.94	–	–	23.3
CC[C@@H](C)[C@H]1NC(=O)[C@@H](CC(C)C)NC(=O)C(C)(C)NC(=O)[C@@H]2CCCN2C(=O)[C@@H]([C@H](C)CC)NC(=O)[C@@H](CC(C)C)NC(=O)C(C)(C)NC(=O)[C@@H]2CCCN2C1=O [Design D8.2, PRO AIB DLEU DILE PRO AIB DLEU DILE] (cyclo([Aib][dL][dI]P[Aib][dL][dI]P))	–	–	–	11.7	8.98	13.19	7.36E-06	1.04E-05	7.49	–	–	–
CC[C@@H](C)[C@H]1NC(=O)[C@@H](CC(C)C)NC(=O)[C@@H](CC(C)C)N(C)C(=O)[C@@H]2CCCN2C(=O)[C@@H](C(C)C)NC(=O)[C@@H](CC(C)C)NC(=O)[C@@H](CC(C)C)N(C)C(=O)[C@@H]2CCCN2C1=O [Design D8.3.p2, DLEU DVAL PRO *DLEU DLEU DILE PRO *DLEU] (cyclo(P[dNMeL][dL][dI]P[dNMeL][dL][dV]))	–	–	–	2.73	4.06	1.54	BQL	BQL	–	BQL	–	–
CC(C)C[C@@H]1NC(=O)[C@@H](C(C)C)NC(=O)[C@H](Cc2ccccc2)N(C)C(=O)[C@H]2CCCN2C(=O)[C@H]2CCCN2C(=O)[C@@H](C)NC(=O)[C@H](Cc2ccccc2)N(C)C(=O)[C@H]2CCCN2C(=O)[C@@H](C(C)C)NC(=O)[C@@H]2CCCN2C1=O [Design D10.4, *PHE DVAL LEU PRO DVAL DPRO *PHE DALA DPRO DPRO] (cyclo(LP[dV][dP][NMeF][dA][dP][dP][NMeF][dV]))	0.627	1.39	0.49	–	–	–	–	–	–	–	–	–
CC(C)C[C@H]1C(=O)N2CCC[C@@H]2C(=O)N(C)[C@@H](C(C)C)C(=O)N[C@@H](C(C)C)C(=O)N2CCC[C@H]2C(=O)N2CCC[C@@H]2C(=O)N[C@@H](C)C(=O)N[C@H](C(C)C)C(=O)N(C)[C@@H](CC(C)C)C(=O)N[C@@H](C)C(=O)N1C [Design D10.5, PRO DPRO ALA DVAL *LEU ALA *LEU DPRO *VAL VAL] (cyclo(A[NMeL][dP][NMeV]VP[dP]A[dV][NMeL]))	0.497	1.31	0.08	–	–	–	–	–	–	–	–	–
